Reference: patent US20250368619A1, “SUBSTITUTED TETRAHYDROCYCLOHEPTA[E]INDOLE DERIVATIVES, PROCESSES FOR THEIR PREPARATION AND THERAPEUTIC USES THEREOF” (SANOFI, priority 2022, published 2025)

biological target: T1, ERα (Homo sapiens, UniProt P03372); assay: Estrogen receptor degradation activity: breast cancer cell ERα in cell western assay in MCF7 cells; type: cell-based; settings: 4 hours, relative to fulvestrant 0.1 μM positive control
T1 construct: host or cells: MCF7
T1 sequence (P03372 1-595): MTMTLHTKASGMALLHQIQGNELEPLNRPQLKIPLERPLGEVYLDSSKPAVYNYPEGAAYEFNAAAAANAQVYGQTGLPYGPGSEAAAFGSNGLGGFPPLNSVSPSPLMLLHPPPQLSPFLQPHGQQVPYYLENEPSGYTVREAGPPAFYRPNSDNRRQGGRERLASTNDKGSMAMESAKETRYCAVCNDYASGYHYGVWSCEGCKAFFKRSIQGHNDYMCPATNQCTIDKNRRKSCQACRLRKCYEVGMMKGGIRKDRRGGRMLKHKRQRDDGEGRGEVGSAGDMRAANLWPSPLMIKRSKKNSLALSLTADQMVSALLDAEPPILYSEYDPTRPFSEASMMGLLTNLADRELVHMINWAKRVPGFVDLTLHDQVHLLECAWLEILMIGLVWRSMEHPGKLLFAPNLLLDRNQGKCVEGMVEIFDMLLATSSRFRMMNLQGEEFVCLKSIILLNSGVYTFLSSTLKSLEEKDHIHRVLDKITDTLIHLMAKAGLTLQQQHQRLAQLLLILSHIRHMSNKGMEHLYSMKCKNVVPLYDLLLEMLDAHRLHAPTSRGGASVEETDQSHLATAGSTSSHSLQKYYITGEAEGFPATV
Protocol: Test: Estrogen receptor degradation activity
Said test involves measuring the in vitro degradation activity of the compounds of the table 1.
The measurements of the degradation activities were made using a breast cancer cell ERα in cell western assay as described hereunder.
MCF7 cells (ATCC) were seeded in 384 wells microplate (collagen coated) at a concentration of 10000 cells/30 μL per well in red phenol free MEM alpha medium (invitrogen) containing 5% charcoal dextran striped FBS. The following day, 9 points serial 1:5 dilution of each compound was added to the cells in 2.5 μL at final concentrations ranging from 0.3-0.0000018 μM (in table 2), or 0.1 μM for fulvestrant (using as positive control). At 4 hours post compound addition the cells were fixed by adding 25 μL of formalin (final concentration 5% formalin containing 0.1% triton) for 10 minutes at RT and then washed twice with PBS. Then, 50 μL of LI-COR blocking buffer containing 0.1% Triton was added to plate for 30 minutes at RT. LI-COR blocking buffer was removed and cells were incubated overnight at cold room with 50 μL anti-ER rabbit monoclonal antibody (Thermo scientific MA1-39540) diluted at 1:1000 in LI-COR blocking buffer containing 0.1% tween-20. Wells which were treated with blocking buffer but no antibody were used as background control. Wells were washed twice with PBS (0.1% tween-20) and incubated at 37° C. for 60 minutes in LI-COR (0.1% tween-20) containing goat anti-rabbit antibody Alexa 488 (1:1000) and Syto-64 a DNA dye (2 μM final concentration). Cells were then washed 3 times in PBS and scanned in ACUMEN explorer (TTP-Labtech). Integrated intensities in the green fluorescence and red fluorescence were measured to determine the levels of ERα and DNA respectively.
The degradation activity with respect to estrogen receptors in this test is given by the concentration which degrades 50% of the estrogen receptor (or IC50) in nM.
The % of ERα levels decrease were determined as follows: % inhibition=100*(1−(sample−fulvestrant:DMSO−fulvestrant)).

Compound	% Degradation At 0.3 μM
N#Cc1ccccc1C1=C(c2ccc(CC3CN(CCCF)C3)cc2)c2ccc3[nH]ccc3c2CCC1 [Compound 12, 2-(6-(4-((1-(3-fluoropropyl)azetidin-3-yl)methyl)phenyl)-3,8,9,10-tetrahydrocyclohepta[e]indol-7-yl)benzonitrile]	85%
COc1ccc(C2=C(c3ccc(CC4CN(CCCF)C4)cc3)c3ccc4[nH]ccc4c3CCC2)cn1 [Compound 15, 6-(4-((1-(3-fluoropropyl)azetidin-3-yl)methyl)phenyl)-7-(6-methoxypyridin-3-yl)-3,8,9,10-tetrahydrocyclohepta[e]indole]	91%
FCCCN1CC(Cc2ccc(C3=C(c4ccc(Cl)cc4Cl)CCCc4c3ccc3[nH]ccc43)cc2)C1 [Compound 7, 7-(2,4-dichlorophenyl)-6-(4-((1-(3-fluoropropyl)azetidin-3-yl)methyl)phenyl)-3,8,9,10-tetrahydrocyclohepta[e]indole]	82%
FCCCN1CC(Cc2ccc(C3=C(C4=CCOCC4)CCCc4c3ccc3[nH]ccc43)cc2)C1 [Compound 16, 7-(3,6-dihydro-2H-pyran-4-yl)-6-(4-((1-(3-fluoropropyl)azetidin-3-yl)methyl)phenyl)-3,8,9,10-tetrahydrocyclohepta[e]indole]	74%
N#Cc1ccc(C2=C(c3ccc(CC4CN(CCCF)C4)cc3)c3ccc4[nH]ccc4c3CCC2)cc1 [Compound 13, 4-(6-(4-((1-(3-fluoropropyl)azetidin-3-yl)methyl)phenyl)-3,8,9,10-tetrahydrocyclohepta[e]indol-7-yl)benzonitrile]	72%
Cc1c(Cl)cccc1C1=C(c2ccc(OC3CN(CCCF)C3)cc2)c2ccc3[nH]ccc3c2CCC1 [Compound 26, 7-(3-chloro-2-methylphenyl)-6-(4-((1-(3-fluoropropyl)azetidin-3-yl)oxy)phenyl)-3,8,9,10-tetrahydrocyclohepta[e]indole]	91%
